Series [1] addresses T1, prostanoid hEP3 receptors (Homo sapiens, UniProt P43115).
T1 sequence (P43115 1-390): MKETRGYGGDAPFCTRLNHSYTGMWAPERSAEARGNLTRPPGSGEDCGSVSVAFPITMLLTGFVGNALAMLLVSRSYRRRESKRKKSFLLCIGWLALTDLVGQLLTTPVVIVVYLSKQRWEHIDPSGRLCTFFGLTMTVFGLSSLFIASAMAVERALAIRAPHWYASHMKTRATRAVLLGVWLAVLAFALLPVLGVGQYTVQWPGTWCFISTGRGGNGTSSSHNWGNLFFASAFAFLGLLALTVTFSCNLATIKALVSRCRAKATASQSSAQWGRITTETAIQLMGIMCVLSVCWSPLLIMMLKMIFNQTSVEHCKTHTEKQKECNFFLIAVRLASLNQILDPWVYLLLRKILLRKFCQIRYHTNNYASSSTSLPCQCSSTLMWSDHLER
Put plainly: binding on prostanoid hEP3 receptors. How it is done: DTSI and related compounds were assayed for binding on prostanoid hEP3 receptors according to the method of Abramovitz et al [Bioch. Biophys.

The next series relates to human platelets. As to the kind of experiment: platelet aggregation in vitro, human platelets. In kind it is cell-based. The conditions noted are these: agonist Sulprostone (100 nM) and collagen (0.125 ug.mL), Serum % 100. As to the method: (§1) DTSI and related compounds were assayed for their effect on platelet aggregation in vitro. In experiments with human platelets, whole blood was extracted from overnight-fasted human donors. Each experiment was performed with blood from a single individual. In experiments with rodent platelets, whole blood was gathered from the heart of female mice or male rats under isofluran (Abbott) anaesthesia. Blood was pooled from two or ten individual rodents for each experiment in the case of rat and mouse experiments, respectively. In all cases, blood was collected into 3.8% sodium citrate tubes (Greiner Bio-one). Platelet-rich plasma (PRP) was obtained by centrifugation at 100×g for 15 min at 25° C. for humans, at 150×g for rats, or at 80×g for 10 min for mice. Platelet-poor plasma was obtained by centrifugation of the remaining blood at 2,400×g for 10 min at 25° C. After counting in an Autocounter (Model 920 EO, Swelab) platelets were diluted when necessary to the desired stock concentrations (200,000-300,000 platelets/μl) using 0.9% NaCl isotonic solution (Braun).
(§2) Platelet aggregation was determined by light absorbance using a platelet aggregometer with constant magnetic stirring (Model 490, Chronolog Cop., Havertown, Pa., USA), using a volume of 500 μl per cuvette. […] IC50 values were calculated using GraphPad Prism 3.02 for Windows (GraphPad Software, San Diego, Calif. USA). […]

Series [2] in a line: aqueous solubility of micronized DTSI in surfactant/amine solutions. The series is classed as physicochemical. As to conditions: for solubility at 60 min: thermodynamic from solid, micronized DTSI. How it is done:
The solubility of DTSI in aqueous PEG, cyclodextrins, glycerides and other solvent systems was evaluated. Excess amount of the DTSI was added to the aqueous compatible/complexation media, the suspension formed was sonicated for 60 minutes (and also heated up to 75° C. e.g. for cyclodextrins). The suspensions at room temperature were filtered and the amount of dissolved drug was determined by HPLC.

For a further series, the system named is rodent platelets (rat). Put plainly: platelet aggregation in vitro, rat platelets. As to conditions: agonist Sulprostone (100 nM) and collagen (2.0 ug.mL), Serum % 20. In kind it is cell-based. How it is done:
as §1, §2

Series [3] has as its system pulmonary thromboembolism by arachidonic acid. Put plainly: pulmonary thromboembolism assay (platelet aggregation in vivo). The conditions noted are these: 100 mg/kg orally, 30 min before arachidonic acid 30 mg/kg i.v.; survival one hour after challenge.
Procedure: DTSI was also assayed for its effects on platelet aggregation in vivo. […] For the pulmonary thromboembolism assay, conscious female C57BL/6 mice were dosed orally with the test compounds and 30 min later thromboembolism was induced by injection of arachidonic acid into a tail vein at a dose of 30 mg per kg body weight. Survival was evaluated one hour after the challenge with arachidonic acid, as mice that survive for that length of time usually recovered fully. The arachidonic acid injection was given via a lateral tail vein in a mouse that had been warmed briefly under a heat lamp (dilation of the tail veins using heat facilitates placing the injection). An insulin syringe, 0. 5 mL (from Becton Dickinson) was used for dosing. The dose volume given of both the test compound and the arachidonic acid was adjusted to the weight of the mouse (the dose volume p.o. for test compounds and i.v. for arachidonic acid solution was 10 μL and 5 μL per gram body weight, respectively).

This is an account of results in US20080125477A1, “7-(ACRYLOYL) INDOLE COMPOSITIONS AND METHODS OF MAKING AND USING SAME” (DECODE GENETICS, EHF., priority 2006, published 2008).

≈ marks a conversion by molar mass, not a printed value.

In general, IC50 refers to the concentration needed to halve the response being measured. One may read the solubility as the dissolved amount per volume that the medium holds. Low readings indicate a poorly soluble substance, high ones a readily soluble substance. Consider `Cc1cn(Cc2ccc(Cl)cc2Cl)c2c(/C=C/C(=O)NS(=O)(=O)c3cc(Cl)c(Cl)s3)cc(F)cc12` [DTSI, 4,5-dichlorothiophene-2-sulfonic acid [(E)-3-[1-(2,4-dichlorophenylmethyl)-5-fluoro-3-methyl-1H-indol-7-yl]-acryloyl]amide], for which the “EP3 receptor antagonism (in words)” value in series [1] is reported as “potent, selective EP3 receptor antagonist”. Besides, the results for the IC50 in the series with human platelets and in the series on rodent platelets (rat) were 218 nM and 83 nM, respectively. Besides, the “aqueous solubility (in words)” value in series [2] was “poor”. For the same compound, the solubility at 60 min in series [2] (aqueous solution of 5% Cremophor RH40, aqueous with cosolvent or surfactant or cyclodextrin, 5% Cremophor RH40) worked out at 170 µg/mL (≈ 0.287 mM); in series [2] (aqueous solution of 5% Cremophor RH40 and 1% diethanolamine, aqueous with cosolvent or surfactant or cyclodextrin, 5% Cremophor RH40 and 1% diethanolamine), 22700 µg/mL (≈ 38.3 mM); in series [2] (aqueous solution of 5% Cremophor RH40 and 1% ethanolamine, aqueous with cosolvent or surfactant or cyclodextrin, 5% Cremophor RH40 and 1% ethanolamine), 8900 µg/mL (≈ 15 mM); in series [2] (aqueous solution of 5% Cremophor RH40 and 1% triethanolamine, aqueous with cosolvent or surfactant or cyclodextrin, 5% Cremophor RH40 and 1% triethanolamine), 8300 µg/mL (≈ 14 mM); in series [2] (aqueous solution of 5% Cremophor RH40 and 1% tromethamine, aqueous with cosolvent or surfactant or cyclodextrin, 5% Cremophor RH40 and 1% tromethamine), 8700 µg/mL (≈ 14.7 mM); in series [2] (aqueous solution of 5% Vitamin E TPGS and 1% choline, aqueous with cosolvent or surfactant or cyclodextrin, 5% Vitamin E TPGS and 1% choline), 46600 µg/mL (≈ 78.7 mM). In addition, the solubility at 60 min in series [2] (aqueous solution of 5% Vitamin E TPGS and 1% diethanolamine, aqueous with cosolvent or surfactant or cyclodextrin, 5% Vitamin E TPGS and 1% diethanolamine) amounted to 20400 µg/mL (≈ 34.4 mM); in series [2] (aqueous solution of 5% Vitamin E TPGS and 1% ethanolamine, aqueous with cosolvent or surfactant or cyclodextrin, 5% Vitamin E TPGS and 1% ethanolamine), 19200 µg/mL (≈ 32.4 mM); in series [2] (aqueous solution of 5% Vitamin E TPGS and 1% triethanolamine, aqueous with cosolvent or surfactant or cyclodextrin, 5% Vitamin E TPGS and 1% triethanolamine), 9200 µg/mL (≈ 15.5 mM); in series [2] (aqueous solution of 5% Vitamin E TPGS and 1% tromethamine, aqueous with cosolvent or surfactant or cyclodextrin, 5% Vitamin E TPGS and 1% tromethamine), 8500 µg/mL (≈ 14.4 mM); in series [2] (aqueous solution of 5% Vitamin E TPGS and 5% diethanolamine, aqueous with cosolvent or surfactant or cyclodextrin, 5% Vitamin E TPGS and 5% diethanolamine) it was 58500 µg/mL (≈ 98.8 mM); in series [2] (aqueous solution of 5% Vitamin E TPGS, aqueous with cosolvent or surfactant or cyclodextrin, 5% Vitamin E TPGS), 100 µg/mL (≈ 0.169 mM). The compound also gave a solubility at 60 min in series [2] (aqueous with cosolvent or surfactant or cyclodextrin, 5% Vitamin E TPGS and 0.5% diethanolamine) of 15600 µg/mL (≈ 26.3 mM). In series [3], the Survival rate came to 68%.
